For test [1], the system named is E. faecium and E. faecalis. Conditions: 20 μl of 1 mg/ml bacteriocin on soft agar, overnight, 30° C. vs 45° C.
In another test the test system is E. hirae (4). Conditions: E. hirae (4), Table 6B. The protocol: (§1) All the strains (see below) used in minimal inhibitory concentration (MIC) assays (Ovchinnikov et al., 2017, Front Microbiol., 8, p774, doi:10.3389/fmicb.2017.00774) were grown in BHI medium (Oxoid) at 30° C. without shaking. The tested strains were obtained from the LMG collection. […] NisinZ and micrococcin P1 were purified from source. Synthesized peptides were solubilized to concentrations of 10.0-0.1 mg/ml in 0.1% (vol/vol) trifluoroacetic acid and stored at −20° C. until use. Garvicin KS is made up of 3 peptides:
(§2) Bacteriocin activity was determined using a microtitre plate assay. The plates were incubated at 30° C. for 8 h and the growth was measured spectrophotometrically at 600 nm (A600) with 15 min intervals using SPECTROstarNano (BMG LABTECH, Germany). The MIC was defined as the bacteriocin concentration that inhibited the growth of the indicator strain by at least 50% in 200 μl culture (i.e., 50% of the turbidity of the control culture without bacteriocin).

Another test deals with Listeria spp. (3). Conditions: Listeria spp. (3), Table 6B. The protocol: as §1, §2
The next test has as its system E. faecium (2). Conditions: E. faecium (2), Table 6B. The protocol: as §1, §2
The test system of another test is E. faecalis (2). Conditions: E. faecalis (2), Table 6B. The protocol: as §1, §2
Test [2] deals with E. faecalis LMGT3358 resistant mutants. In outline: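 Peptides were dissolved in 0.1% (vol/vol) trifluoroacetic acid as stocks of 10.0-0.1 mg/ml. Activity against each indicator strain was then measured by microtiter plate assay in BHI at 30° C, unshaken. The minimal concentration inhibiting growth by at least 50% was recorded as MIC.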
The next test relates to SH 4015. Description: microbe, parasite or virus in culture. Conditions: SH 4015 (S. haemolyticus). The procedure:
as §1, §2

Another test relates to Sa3324. Description: microbe, parasite or virus in culture. Conditions: Sa3324 (S. aureus). The protocol: as §1, §2
The next test relates to Sa 3328. Description: microbe, parasite or virus in culture. Conditions: Sa 3328 (S. aureus). The protocol: as §1, §2
Another test relates to Sa ATCC 33591. Description: microbe, parasite or virus in culture. Conditions: Sa ATCC 33591 (S. aureus). The procedure: as §1, §2
A further test has as its system Sa 3242. Description: microbe, parasite or virus in culture. Conditions: Sa 3242 (S. aureus). The protocol: as §1, §2
For the next test, the system named is SH 4016. Description: microbe, parasite or virus in culture. Conditions: SH 4016 (S. haemolyticus). The protocol: as §1, §2
The next test relates to Sa3323. Description: microbe, parasite or virus in culture. Conditions: Sa3323 (S. aureus). The procedure: as §1, §2

No end group written: not given here.

Consider “MKFKFNPTGTIVKKLTQYEIAWFKNKHGYYPWEIPRC [EntK1]”, for which, in [1], the “appearance of resistant mutants at growth temperature” value was “only appeared at 30 °C but not at 45 °C”. Besides, the MIC against E. hirae (4) is 0.2 to 0.8 µg/mL; against Listeria spp. (3), >50 µg/mL; against E. faecium (2), <0.02 to 0.4 µg/mL; with E. faecalis (2) it was >25 µg/mL.

Regarding “MLAKIKAMIKKFPNPYTLAAKLTTYEINWYKQQYGRYPWERPVA [EntEJ97]”, the “resistance of lower resistance (LR) colonies compared to the WT” value in test [2] (five LR colonies of E. faecalis) was 16-32 times. The “resistance of highly resistant (HR) colonies compared to the WT” value in [2] (seven HR colonies of E. faecalis) is reported as “at least 500 times”. For the same sequence, the “appearance of resistant mutants at growth temperature” value in test [1] is “only appeared at 30 °C but not at 45 °C”. Moreover, the MIC against E. hirae (4) is 0.4 to 1.6 µg/mL; with Listeria spp. (3), 12.5 to 25 µg/mL; in the test on E. faecium (2), 0.8 to 1.6 µg/mL; with E. faecalis (2), 3.1 µg/mL; in the test on SH 4015 it was 12.5 µg/mL; with Sa3324, 12.5 µg/mL. The MIC against Sa 3328 is 6.25 µg/mL; against Sa ATCC 33591, >50 µg/mL; with Sa 3242 it was 6.25 µg/mL; in the test with SH 4016, 12.5 µg/mL; in the test with Sa3323 it was 6.25 µg/mL.

These data come from US11648289B2, “Antibacterial method” (priority 2016, dated 2023).
